In US20120302503A1, “PEPTIDES FOR PREVENTING OR TREATING A DISEASE OR DISORDER ASSOCIATED WITH CBP OR p300 MISREGULATION, AND METHODS FOR USE AND IDENTIFICATION THEREOF” (AML Therapeutics, LLC, priority 2011, published 2012) one finds IC50 data, which are given here for five compounds.

The structures appear in SMILES notation. pIC50: −log10 of the molar value. Like-named read-outs stand apart in the source and are kept apart here. Square brackets hold non-standard residues; d marks the D form. Peptide text beside a SMILES is read from it. d(pS) = N[C@H](COP(=O)(O)O)C(=O)O; pS = N[C@@H](COP(=O)(O)O)C(=O)O; dNle = CCCC[C@@H](N)C(=O)O

For the test, the system named is THP-1 cell line. In words: Cell proliferation assay (Promega Cell Titer-Glo) using cell line THP-1. The class given is cell-based. Here is the method:
To determine the in vitro IC50 of two peptides, and a positive control, cisplatin, against the THP-1 cell line, cell growth is determined using Promega's Cell Titer-Glo® assay. THP-1 tumor cells are placed in a 96-well microculture plate (Costar white, flat bottom #3917) at 20,000 cells per well, in a total volume of 90 μL/well. After 24 hours of incubation in a humidified incubator at 37 C with 5% CO2 and 95% air, 10 μL of 10×, serially diluted test agents in growth medium are added to each well. […] 100 μL of Cell Titer-Glo® reagent are added to each well. The plate is shaken for 2 minutes and then left to equilibrate for 10 minutes before determining luminescence on a Tecan GENios microplate reader. Percent inhibition of cell growth is calculated relative to untreated control wells. All tests are performed in duplicate at each concentration level. The IC50 value for the test agents is estimated using Prism 3.03 by curve-fitting the data using the following four parameter-logistic equation: where Top is the maximal % of control absorbance, Bottom is the minimal % of control absorbance at the highest agent concentration, Y is the % of control absorbance, X is the agent concentration, IC50 is the concentration of agent that inhibits cell growth by 50% compared to the control cells, and n is the slope of the curve.
(In general: Cellular ATP, detected with luciferase, serves as a proxy for viable cell number.)

The compound `CC[C@@H](C)[C@@H](NC(=O)[C@@H](CC(C)C)NC(=O)[C@@H](CC(N)=O)NC(=O)[C@@H](CC(=O)O)NC(=O)[C@@H](CC(C)C)NC(=O)[C@@H](CCSC)NC(=O)[C@@H](CO)NC(=O)[C@H](NC(=O)[C@@H](CCC(=O)O)NC(=O)[C@@H](CC(N)=O)NC(=O)[C@@H](CCC(=O)O)NC(=O)[C@@H](CC(C)C)NC(=O)CNC(=O)[C@@H](CCCNC(=N)N)NC(=O)[C@@H](CCCNC(=N)N)NC(=O)[C@@H](CCCNC(=N)N)NC(=O)[C@@H](CCCNC(=N)N)NC(=O)[C@@H](CCCNC(=N)N)NC(=O)[C@@H](CCCNC(=N)N)NC(=O)[C@@H](CCCNC(=N)N)NC(=O)[C@@H](CCCNC(=N)N)NC(=O)[C@H](N)CCCNC(=N)N)[C@H](C)O)C(=O)N[C@H](CCCCN)C(=O)N[C@H](CCCNC(=N)N)C(=O)N[C@H](Cc1ccc(O)cc1)C(=O)N[C@@H](COP(=O)(O)O)C(=O)NCC(N)=O` [SEQ ID NO: 14, dR dR dR dR dR dR dR dR dR G dL dE dN dE dT dS dM dL dD dN dL dI dK dR dY pS G amide] (H-[dR][dR][dR][dR][dR][dR][dR][dR][dR]G[dL][dE][dN][dE][dT][dS][dM][dL][dD][dN][dL][dI][dK][dR][dY][pS]G-NH2; N-terminus assumed) had a negative-log IC50 (pIC50) (24 h) of 4.86. Compound `CC[C@@H](C)[C@@H](NC(=O)[C@@H](CC(C)C)NC(=O)[C@@H](CC(N)=O)NC(=O)[C@@H](CC(=O)O)NC(=O)[C@@H](CC(C)C)NC(=O)[C@@H](CCSC)NC(=O)[C@@H](CO)NC(=O)[C@H](NC(=O)[C@@H](CCC(=O)O)NC(=O)[C@@H](CC(N)=O)NC(=O)[C@@H](CCC(=O)O)NC(=O)[C@@H](CC(C)C)NC(=O)CNC(=O)[C@@H](CCCNC(=N)N)NC(=O)[C@@H](CCCNC(=N)N)NC(=O)[C@@H](CCCNC(=N)N)NC(=O)[C@@H](CCCNC(=N)N)NC(=O)[C@@H](CCCNC(=N)N)NC(=O)[C@@H](CCCNC(=N)N)NC(=O)[C@@H](CCCNC(=N)N)NC(=O)[C@@H](CCCNC(=N)N)NC(=O)[C@H](N)CCCNC(=N)N)[C@H](C)O)C(=O)N[C@H](CCCCN)C(=O)N[C@H](CCCNC(=N)N)C(=O)N[C@H](Cc1ccc(O)cc1)C(=O)N[C@H](COP(=O)(O)O)C(=O)NCC(N)=O` [SEQ ID NO: 13, dR dR dR dR dR dR dR dR dR G dL dE dN dE dT dS dM dL dD dN dL dI dK dR dY dpS G amide] (H-[dR][dR][dR][dR][dR][dR][dR][dR][dR]G[dL][dE][dN][dE][dT][dS][dM][dL][dD][dN][dL][dI][dK][dR][dY][d(pS)]G-NH2; N-terminus assumed) had a negative-log IC50 (pIC50) (24 h) of 4.76. For `CC[C@@H](C)[C@@H](NC(=O)[C@@H](CCCCN)NC(=O)[C@@H](CCC(=O)O)NC(=O)[C@@H](CC(C)C)NC(=O)[C@@H](CCC(=O)O)NC(=O)[C@@H](CC(C)C)NC(=O)[C@@H](CC(C)C)NC(=O)[C@@H](CC(C)C)NC(=O)[C@@H](CCSC)NC(=O)[C@@H](CO)NC(=O)[C@H](NC(=O)[C@@H](CCC(=O)O)NC(=O)[C@@H](CC(N)=O)NC(=O)[C@@H](CCC(=O)O)NC(=O)[C@@H](CC(C)C)NC(=O)CNC(=O)[C@@H](Cc1ccc(O)cc1)NC(=O)CNC(=O)[C@@H](CCCNC(=N)N)NC(=O)[C@@H](CCCCN)NC(=O)[C@@H](CCCCN)NC(=O)[C@@H](CCCNC(=N)N)NC(=O)[C@@H](CCCNC(=N)N)NC(=O)[C@@H](CCC(N)=O)NC(=O)[C@@H](CCCNC(=N)N)NC(=O)[C@@H](CCCNC(=N)N)NC(=O)[C@H](N)CCCNC(=N)N)[C@H](C)O)C(=O)N[C@H](CCCNC(=N)N)C(N)=O` [SEQ ID NO: 16, dR dR dR dQ dR dR dK dK dR G dY G dL dE dN dE dT dS dM dL dL dL dE dL dE dK dI dR amide] (H-[dR][dR][dR][dQ][dR][dR][dK][dK][dR]G[dY]G[dL][dE][dN][dE][dT][dS][dM][dL][dL][dL][dE][dL][dE][dK][dI][dR]-NH2; N-terminus assumed), the pIC50 (24 h) is 4.67. With `CCCC[C@@H](NC(=O)[C@@H](CCSC)NC(=O)[C@@H](CO)NC(=O)[C@H](NC(=O)[C@@H](CCC(=O)O)NC(=O)[C@@H](CC(N)=O)NC(=O)[C@@H](CCC(=O)O)NC(=O)[C@@H](CC(C)C)NC(=O)CNC(=O)[C@@H](CCCNC(=N)N)NC(=O)[C@@H](CCCNC(=N)N)NC(=O)[C@@H](CCCNC(=N)N)NC(=O)[C@@H](CCCNC(=N)N)NC(=O)[C@@H](CCCNC(=N)N)NC(=O)[C@@H](CCCNC(=N)N)NC(=O)[C@@H](CCCNC(=N)N)NC(=O)[C@@H](CCCNC(=N)N)NC(=O)[C@H](N)CCCNC(=N)N)[C@H](C)O)C(=O)N[C@H](CC(=O)O)C(=O)N[C@H](CC(N)=O)C(=O)N[C@H](CC(C)C)C(=O)N[C@@H](C(=O)N[C@H](CCCCN)C(=O)N[C@H](CCCNC(=N)N)C(=O)N[C@H](Cc1ccc(O)cc1)C(=O)N[C@@H](COP(=O)(O)O)C(=O)NCC(N)=O)[C@H](C)CC` [SEQ ID NO: 15, dR dR dR dR dR dR dR dR dR G dL dE dN dE dT dS dM dNIe dD dN dL dI dK dR dY pS G amide] (H-[dR][dR][dR][dR][dR][dR][dR][dR][dR]G[dL][dE][dN][dE][dT][dS][dM][dNle][dD][dN][dL][dI][dK][dR][dY][pS]G-NH2; N-terminus assumed), the pIC50 (24 h) was 4.85.

`N.N.[Cl][Pt][Cl]` [Cisplatin, cisplatin, reference compound]: the pIC50 reads like this: (THP-1 tumor cells, 96 total hours of culture, Cell Titer-Glo luminescence, Table 1, read-out: IC50 values) 5.80; (THP-1 tumor cells, 96 total hours of culture, Cell Titer-Glo luminescence, Table 2, read-out: IC50 values) 5.80.

As usually defined, the pIC50 is −log10 of the IC50, conventionally taken in molar units.
